Where a name gives a salt, the structure may show the parent alone. Read-outs that look alike come from different tables or passages of the source.
Tests used:
[1] = test system: MYB mRNA; assay: RT-qPCR splicing assay, MYB canonical junction (CJ) and alternative junction (AJ) mRNA; assay type: cell-based, human; details: Homo sapiens; for AC50: increase in MYB alternative junction (AJ) mRNA, read-out: MYB AJ AC50
Outline: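 Read-out is one-step RT-qPCR on cell lysates detecting the exon-exon junction of each isoform, normalized to a housekeeping gene (PPIA in A673, GAPDH or GUSB in K562).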

[2] = test system: Target C; assay: RT-qPCR splicing assay panel, Target C canonical junction (CJ) mRNA; assay type: cell-based, human; details: Homo sapiens; Table 5 panel; canonical junction qPCR; compound concentration having 50% response in CJ decrease; read-out: Target C IC50 (decrease in CJ mRNA levels)
Outline: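 A673 or K562 cells were treated for 24 h at 37 °C with compound in 11-point 3-fold dilution (top 10 uM final, DMSO ≤0.25%). Lysates then went to one-step RT-qPCR measuring canonical-junction mRNA, normalized to GAPDH, GUSB or PPIA.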

[3] = Table 5 panel, canonical junction qPCR, compound concentration having 50% response in CJ decrease, read-out: MYB IC50 (decrease in CJ mRNA levels)
[4] = decrease in MYB canonical junction (CJ) mRNA, RT-qPCR, read-out: MYB CJ IC50

Compound	IC50 [1, 3]	IC50 [1, 4]	AC50 ([1]; RT-qPCR)	IC50 [2]
Cc1cn2nc(-c3ccc4c(=O)n(C5CCNCC5)ccc4c3)cc(C(=O)N(C)C)c2n1 [Compound 524, N, N, 2-trimethyl-6-[1-oxo-2-(4-piperidyl)-6-isoquinolyl]imidazo[1,2-b]pyridazine-8-carboxamide]	> 10000 nM	> 10000 nM	> 10000 nM	> 10000 nM
CCN1CCC(n2ncc3cc(-c4cc(C)c5nc(C)cn5n4)cc(O)c3c2=O)CC1 [Compound 542]	< 100 nM	< 100 nM	< 100 nM	100 to 1000 nM
Cc1cn2nc(-c3cc(F)c4c(=O)n(C5CCNC5)cnc4c3)cc(C)c2n1 (stereo not shown) [Compound 589, 7-{2,8-dimethylimidazo[1,2-b]pyridazin-6-yl}-5-fluoro-3-(pyrrolidin-3-yl)quinazolin-4-one]	1000 to 10000 nM	1000 to 10000 nM	1000 to 10000 nM	> 10000 nM
CCN1CCC(n2ncc3cc(-c4cc(C)c5nc(C)cn5n4)cc(F)c3c2=O)CC1 [Compound 537]	100 to 1000 nM	100 to 1000 nM	100 to 1000 nM	100 to 1000 nM
Cc1cn2nc(-c3cc(N)c4c(=O)n([C@@H]5CCNC5)ccc4c3)cc(C)c2n1 [Compound 646, 8-amino-6-(2,8-dimethylimidazo[1,2-b]pyridazin-6-yl)-2-[(3R)-pyrrolidin-3-yl]isoquinolin-1-one]	> 10000 nM	1000 to 10000 nM	> 10000 nM	> 10000 nM
CNc1cc(-c2cc(C)c3nc(C)cn3n2)cc2ccn([C@H]3CCNC3)c(=O)c12 [Compound 647, 6-(2,8-dimethylimidazo[1,2-b]pyridazin-6-yl)-8-(methylamino)-2-[(3S)-pyrrolidin-3-yl]isoquinolin-1-one]	1000 to 10000 nM	1000 to 10000 nM	1000 to 10000 nM	> 10000 nM
Cc1cn2nc(-c3ccc4c(=O)n(C5CCN(C)CC5)cnc4c3)cc(C)c2n1 [Compound 176]	100 to 1000 nM	1000 to 10000 nM	100 to 1000 nM	1000 to 10000 nM
CN(c1ccc2c(=O)n(-c3ccc4nn(C)cc4c3)cnc2c1)C1CCNCC1 [Compound 180]	> 10000 nM	> 10000 nM	> 10000 nM	1000 to 10000 nM
Cc1cn2nc(-c3cc(O)c4c(=O)n(C5CCN(CCF)CC5)ncc4c3)cc(C)c2n1 [Compound 553]	100 to 1000 nM	100 to 1000 nM	100 to 1000 nM	100 to 1000 nM
Cc1cn2nc(-c3ccc4c(=O)n(C5CCNCC5)ccc4c3)cc(CC(N)=O)c2n1 [Compound 528, 2-(2-methyl-6-(1-oxo-2-(piperidin-4-yl)-1,2-dihydroisoquinolin-6-yl)imidazo[1,2-b]pyridazin-8-yl) acetamide]	1000 to 10000 nM	1000 to 10000 nM	1000 to 10000 nM	1000 to 10000 nM
CCc1cn(C2CCNCC2)c(=O)c2c(F)cc(-c3cc(F)c4nc(C)cn4c3)cc12 [Compound 558, 4-ethyl-8-fluoro-6-{8-fluoro-2-methylimidazo[1,2-a]pyridin-6-yl}-2-(piperidin-4-yl)isoquinolin-1-one]	100 to 1000 nM	100 to 1000 nM	100 to 1000 nM	1000 to 10000 nM
C=Cc1cn(C2CCNCC2)c(=O)c2c(F)cc(-c3cc(F)c4nc(C)cn4c3)cc12 [Compound 559, 4-ethenyl-8-fluoro-6-{8-fluoro-2-methylimidazo[1,2-a]pyridin-6-yl}-2-(piperidin-4-yl)isoquinolin-1-one]	< 100 nM	< 100 nM	< 100 nM	100 to 1000 nM
Cc1cn2nc(-c3ccc4c(=O)n(C5CCNCC5)ccc4c3)cc(Oc3ccc(F)cc3)c2n1 [Compound 546, 6-[8-(4-fluorophenoxy)-2-methyl-imidazo[1,2-b]pyridazin-6-yl]-2-(4-piperidyl) isoquinolin-1-one; hydrochloride]	< 100 nM	< 100 nM	< 100 nM	< 100 nM
CN1CCC(c2ccc3c(=O)n(-c4ccc5nn(C)cc5c4)cnc3c2)CC1 [Compound 177]	> 10000 nM	> 10000 nM	> 10000 nM	1000 to 10000 nM
Cc1cn2nc(-c3cc4ncn(C5CCNCC5)c(=O)c4cc3F)cc(C)c2n1 [Compound 585, 7-{2,8-dimethylimidazo[1,2-b]pyridazin-6-yl}-6-fluoro-3-(piperidin-4-yl)quinazolin-4-one]	1000 to 10000 nM	1000 to 10000 nM	1000 to 10000 nM	1000 to 10000 nM
Cc1cn2nc(-c3ccc4c(=O)n(C5CCNCC5)ccc4c3)cc(-n3ccccc3=O)c2n1 [Compound 552, 6-[2-methyl-8-(2-oxo-1-pyridyl)imidazo[1,2-b]pyridazin-6-yl]-2-(4-piperidyl)isoquinolin-1-one]	> 10000 nM	> 10000 nM	> 10000 nM	> 10000 nM
CCOC(=O)c1cc(-c2ccc3c(=O)n(C4CCNCC4)ccc3c2)nn2cc(C)nc12 [Compound 529, ethyl 2-methyl-6-[1-oxo-2-(4-piperidyl)-6-isoquinolyl]imidazo[1,2-b]pyridazine-8-carboxylate]	100 to 1000 nM	100 to 1000 nM	100 to 1000 nM	1000 to 10000 nM
Cc1cc(-c2cc(O)c3c(=O)n(C4CCNC5(CC5)C4)ncc3c2)cc2cn(C)nc12 (stereo not shown) [Compound 561]	1000 to 10000 nM	100 to 1000 nM	1000 to 10000 nM	1000 to 10000 nM
COc1cc(-c2ccc3c(=O)n(C4CCNCC4)ccc3c2)nn2cc(C)nc12 [Compound 514, 6-(8-methoxy-2-methyl-imidazo[1,2-b]pyridazin-6-yl)-2-(4-piperidyl) isoquinolin-1-one; hydrochloride]	< 100 nM	< 100 nM	< 100 nM	< 100 nM
Cc1cc(-c2ccc3c(=O)n(N4CCN(C)CC4)cnc3c2)cc2cn(C)nc12 [Compound 175]	1000 to 10000 nM	1000 to 10000 nM	1000 to 10000 nM	> 10000 nM
Cc1cn2cc(-c3cc(F)c4c(=O)n(C5CC(C)NC(C)C5)ccc4c3)cc(F)c2n1 (stereo not shown) [Compound 651]	< 100 nM	< 100 nM	< 100 nM	100 to 1000 nM
Cc1cn2nc(-c3ccc4c(=O)n(C5CCNCC5)ccc4c3)cc(Cc3nnn[nH]3)c2n1 [Compound 536, 6-[2-methyl-8-(1H-tetrazol-5-ylmethyl)imidazo[1,2-b]pyridazin-6-yl]-2-(4-piperidyl) isoquinolin-1-one]	> 10000 nM	> 10000 nM	> 10000 nM	> 10000 nM
CNC(=O)c1cc(-c2ccc3c(=O)n(C4CCNCC4)ccc3c2)nn2cc(C)nc12 [Compound 518, N, 2-dimethyl-6-[1-oxo-2-(4-piperidyl)-6-isoquinolyl]imidazo[1,2-b]pyridazine-8-carboxamide]	1000 to 10000 nM	> 10000 nM	1000 to 10000 nM	> 10000 nM
Cc1cn2nc(-c3cc(F)c4c(=O)n(C5CCN(C)CC5)ncc4c3)cc(C)c2n1 [Compound 539]	< 100 nM	< 100 nM	< 100 nM	100 to 1000 nM
Cc1cn2nc(-c3ccc4c(=O)n(C5CCNCC5)ccc4c3)cc(Cc3nnc[nH]3)c2n1 [Compound 535, 6-[2-methyl-8-(4H-1,2,4-triazol-3-ylmethyl)imidazo[1,2-b]pyridazin-6-yl]-2-(4-piperidyl) isoquinolin-1-one]	1000 to 10000 nM	1000 to 10000 nM	1000 to 10000 nM	> 10000 nM

Source: patent US20250332173A1, “COMPOUNDS AND METHODS FOR MODULATING NUCLEIC ACID SPLICING” (REMIX THERAPEUTICS INC., priority 2021, published 2025)
